The source of these data is article PMC10726358 (Journal of Medicinal Chemistry, 2023).

Read-outs that look alike come from different tables or passages of the source. Bounds are passed on as bounds.

For one series, the system named is BRD4 BD2. As to the kind of experiment: BRD4 BD2 TR-FRET assay. Type of series: binding, human. As to the method: (§1) As a strategic decision, every compound synthesized across all of GSK’s bromodomain research projects was tested in both a BRD4 BD1 and a BRD4 BD2 TR-FRET assay as part of tier 1 data generation. […] LipE is a straightforward, yet powerful metric for medicinal chemistry teams to normalize potency relative to lipophilicity, a critical factor both for parameters of the human dose equation and also for promiscuity.[43],[44] To aid interpretation, diagonal lines representing different LipE values are shown, with the most desirable space found toward the top left-hand area of the plot representing molecules with the comparatively highest potency per unit of lipophilicity.
(§2) All TR-FRET and hWB cytokine assays have been described previously.[54]

The subject of series [1] is BRD4 BD1. Type of series: binding, human. To be noted: TR-FRET. The procedure:
as §1, §2

Series [2] can be described thus: CLND kinetic aqueous solubility.
The nature of series [3]: Chromatographic LogD at pH 7.4.
In another series the test system is BET BD2. As to conditions: cited from earlier work.
The nature of the next series: CAD aqueous solubility. The procedure:
(§3) To understand cellular target engagement, 21 was tested in an LPS-stimulated hWB assay measuring inhibition of the inflammatory mediator MCP-1 secretion.
ChromatographicLogD at pH 7.4, artificial membrane permeability, CLND solubility, and CAD solubility were measured using published protocols.[55]

Another series relates to MCP-1. Kind of series: LPS-stimulated human whole blood (hWB) MCP-1 release assay. Format: cell-based. To be noted: LPS-stimulated human whole blood; read-out: hWB MCP-1 pIC50 (converted).
Text: The utility of a chemical probe in target validation is directly related to its quality, with important publications detailing requirements to aid researchers.[36]−[38] […] It was accepted that selectivity would be judged initially through a mutant BRD4 TR-FRET assay and would likely shift depending on the protein construct and assay format. […] Previous studies have shown that BET BD1 inhibition is sufficient to inhibit in vitro production of MCP-1 in LPS-stimulated hWB and, as such, served as a relevant measure of cellular target engagement and, concomitantly, proof of cellular permeability.[12],[39] Selectivity over other human bromodomains outside of the BET family, known collectively as non-BET bromodomains, was also required,[40] with a ≥ 100-fold selectivity window targeted. To ensure the molecules remained within developable chemical space, a target property forecast index (PFI) as defined by chromLogDpH7.4 + number of aromatic rings ≤6 was set.[41]
as §3, §2

For a further series, the system named is BET BD1. To be noted: cited from earlier work.
Series [4] concerns BRD4 BD1. As to conditions: literature compound, no reference given; cited from earlier work.

For `CC(=O)N1CCC[C@@H](Cn2c(-c3cc(C)c(=O)n(C)c3)nc3ccccc32)C1` [(S)-12, (S)-5-(1-((1-Acetylpiperidin-3-yl)methyl)-1H-benzo[d]imidazole-2-yl)-1,3-dimethylpyridin-2(1H)-one], in the series on BRD4 BD2, the “BRD4 BD2 FRET pIC50” value is recorded as 6.2. In the series with BRD4 BD1 [1], the “BRD4 BD1 FRET pIC50” value stood at 8.0 and the “fold selectivity (BRD4 BD1 over BRD4 BD2)” value (from here on “fold selectivity”) is 63 fold. Also, the IC50 in the series on BRD4 BD1 [1] (read-out: BRD4 BD1 potency (IC50)) worked out at 10 nM. Further, in series [2] (aqueous), the solubility was ≥ 247 µg/mL. Also, in series [3] (chromLogDpH7.4 + number of aromatic rings), the “PFI (property forecast index)” value is recorded as 5.2. Also, the chromatographic logD in series [3] (pH 7.4) came out at 2.2.

In the case of `CCNC(=O)c1cc2c(-c3cc(C(C)(C)O)ccc3Oc3c(C)cc(F)cc3C)cn(C)c(=O)c2[nH]1` [ABBV-744], in the series with BET BD2, the “BD2 selectivity over BET BD1” value is listed as 330 fold.

With `COc1cc(OC)c2c(=O)[nH]c(-c3cc(C)c(OCCO)c(C)c3)nc2c1` [Apabetalone/RVX-208], the “BD2 selectivity over BET BD1” value with BET BD2 was 10 fold.

Consider `Cc1cc(-c2nc3ccccc3n2CC2CCOCC2)cn(C)c1=O` [Compound 13], for which the “BRD4 BD2 FRET pIC50” value with BRD4 BD2 worked out at 6.4. Also, in the series with BRD4 BD1 [1], the “BRD4 BD1 FRET pIC50” value is listed as 7.2 and the “fold selectivity” value is given as 6 fold. Moreover, in series [2] (aqueous), the solubility was ≥ 142 µg/mL. This molecule returned a chromLogDpH7.4 in series [3] (pH 7.4) of 2.7.

Take `CC(=O)N1CCC[C@@H](Cn2c(-c3cc(C)c(=O)n(C)c3)nc3cc(Br)ccc32)C1` [Compound 14, (S)-5-(1-((1-Acetylpiperidin-3-yl)methyl)-5-bromo-1H-benzo[d]imidazole-2-yl)-1,3-dimethylpyridin-2(1H)-one]: in the series on BRD4 BD2, the “BRD4 BD2 FRET pIC50” value was 6.3 ± 0.01 (2). Also, in the series on BRD4 BD1 [1], the “BRD4 BD1 FRET pIC50” value is on record as 8.0 ± 0.06 (2) and the “fold selectivity” value amounted to 50 fold. Further, the solubility in series [2] is ≥ 250 µg/mL. The same molecule returned a chromatographic logD in series [3] (pH 7.4) of 3.3.

With `Cc1cc(-c2nc3ccccc3n2C[C@@H]2CCCNC2)cn(C)c1=O` [Compound 19, (R)-1,3-Dimethyl-5-(1-(piperidin-3-ylmethyl)-1H-benzo[d]imidazole-2-yl)pyridin-2(1H)-one], in the series on BRD4 BD2, the “BRD4 BD2 FRET pIC50” value was found to be 5.0. For the same molecule, in the series with BRD4 BD1 [1], the “BRD4 BD1 FRET pIC50” value is 6.2 and the “fold selectivity” value is on record as 16 fold. The solubility in series [2] (aqueous (buffer not specified)) was ≥ 152 µg/mL. In addition, the chromatographic logD in [3] (pH 7.4) was 0.7.

`Cc1cc(-c2nc3ccccc3n2C[C@@H]2CCCN(C(=O)C3CCN(CCF)CC3)C2)cn(C)c1=O` [Compound 34, (S)-5-(1-((1-(1-(2-Fluoroethyl)piperidine-4-carbonyl)piperidin-3-yl)methyl)-1H-benzo[d]imidazole-2-yl)-1,3-dimethylpyridin-2(1H)-one]: the “BRD4 BD2 FRET pIC50” value with BRD4 BD2 was found to be 4.7. For the same molecule, in the series with BRD4 BD1 [1], the “BRD4 BD1 FRET pIC50” value is recorded as 7.6 and the “fold selectivity” value worked out at 794 fold. This molecule returned a pKa in the series “pKa of the basic amine” of 7.3. In addition, in the series “CAD aqueous solubility”, the solubility was ≥ 207 µg/mL. The molecule further returned a chromatographic logD in series [3] (pH 7.4) of 2.5. Also, the IC50 in the series on MCP-1 was 63.1 nM.

In the case of `Cc1cc(-c2nc3ccccc3n2C[C@@H]2CCCN(C(=O)C3CCN(CC(F)F)CC3)C2)cn(C)c1=O` [Compound 35, (S)-5-(1-((1-(1-(2,2-Difluoroethyl)piperidine-4-carbonyl)piperidin-3-yl)methyl)-1H-benzo[d]imidazole-2-yl)-1,3-dimethylpyridin-2(1H)-one], the “BRD4 BD2 FRET pIC50” value with BRD4 BD2 came out at 4.7. For the same molecule, in the series with BRD4 BD1 [1], the “BRD4 BD1 FRET pIC50” value is recorded as 6.7 and the “fold selectivity” value came out at 100 fold. This molecule displayed a pKa in “pKa of the basic amine” of 4.2. Further, in the series “CAD aqueous solubility”, the solubility is ≥ 279 µg/mL. The chromatographic logD in series [3] (pH 7.4) is 3.2. Further, the IC50 in the series with MCP-1 is 631 nM.

Regarding `COCc1nc2cnc3cc(-c4c(C)noc4C)c(OC[C@H]4CCNC4)cc3c2n1[C@H](C)c1ccccc1` [GSK778], in the series with BET BD1, the IC50 is < 100 nM and the “selectivity for BET BD1 over BET BD2” value is on record as 30–140 fold.

As for `COc1ccccc1S(=O)(=O)Nc1ccc2c3c(cc(-n4cnc(C)c4)nc13)C(=O)N2C` [LT052], in the series with BRD4 BD1 [4], the IC50 was 88 nM and the “selectivity for BRD4 BD1 over BRD4 BD2” value was 138 fold.
